Laboratory results taken from patent US20250339391A1, “METHODS FOR EFFECTIVE MANAGEMENT OF PAIN” (South Rampart Pharma, Inc., priority 2024, published 2025).
Entries after “also recorded” stand apart in the source; their conditions may differ.

Key:
[1] = system: CD1 mice; settings: for signs of hepatotoxicity: CD-1 mice; for animals dead in 48 hours: FIG. 1F experiment, data not shown
Description: After drug administration, animals were returned to their respective cages and maintained with food and water provided ad libitum for the next 12 h. Animals were then euthanized under 5% isoflurane anesthesia after 12 h, and whole blood samples were collected transcardially in sterile microcentrifuge tubes without anti-coagulants. Whole blood samples were stored at room temperature (25° C.) for 30 min, allowing them to coagulate, which was centrifuged at 1,000 g for 5 min at 4° C. to isolate serum samples from whole blood, which were collected, aliquoted, and stored at −80° C. for identification of NAPQI, and liver function tests (LFTs).
LFTs were done on fresh serum samples, and not on thawed frozen serum samples to avoid denaturing LFT transaminases due to freeze/thaw of frozen serum.
Employing a consistent lethal dose for both compounds streamline the experimental design and facilitates data interpretation. This approach aligns with FDA guidelines on Bioequivalence and Bioavailability studies for estimating the maximum safe starting dose in humans, a strategy further substantiated by others. At 12 h post-injection, mice were deeply anesthetized under 5% isoflurane for more than 5 min and formalin-fixed via transcardial perfusion with 10% Neutral Buffered Formalin (NBF) after exsanguination using 0.9% NaCl. Liver tissues were extracted and stored in NBF for 24 h post fixation, after which they were then transferred to 80% EtOH for storage prior to paraffin embedding, sectioning, and immunological staining. FFPE blocks were sectioned into 5 μm thick slices on regular frost-free plus slides and dried overnight on a slide warmer. After deparaffination, sections were stained with validated antibodies for nitrotyrosine and ZO-1 (tight junctions). […] Nitrotyrosine labeling was detected with 3′3′-Diaminobenzidine (DAB) staining, and nitrotyrosine labeled hepatic sections were imaged at 100× magnification in brightfield using a Nikon Eclipse TS100 microscope with NIS-Elements BR 3.0 software (NIKON Inc, Melville, NY, USA). Slides with ZO-1 staining were imaged in z-stacks obtained at 20× magnification using Olympus FV-1200 confocal microscope with Fluoview software FV10-ASW Version 04.02.02.09 (Olympus Corp Center Valley, PA, USA). Quantification of ZO-1 staining hepatic tight junctions was carried out by unbiassed image analysis calculating area sum of pixel^2 of the green channel staining ZO-lusing CellSens software (Olympus Corp Center Valley, PA, USA).

[2] = system: NAPQI; assay: LC-MS/MS identification of serum NAPQI and novel benzoquinoimine; type: in vivo, mouse; settings: CD-1 mice, 600 mg/kg, IP or per os
Description: […] (NAPQI) was extracted from the serum by adding 3 volumes of ethyl-acetate to 1 volume of serum and storing them on ice for 30 min, followed by centrifugation at 3000 g for 30 min. Afterward, the supernatant was transferred into mass spectrometry vials and dried under N2 gas. The serum was then washed with another 3 volumes of ethyl-acetate, and the supernatant was added back to the same mass spectrometry vial, followed by evaporation under a stream of N2 gas. The sample was re-suspended with 50 μl of 1:1 MeOH:H2O for LC-MS/MS experimentation. The mass spectrophotometer was operated in multiple reaction monitoring (MRM) mode using positive ion electrospray. NAPQI was detected by monitoring the m/z transition 150.3→108.1. Pure NAPQI analytical standard (10 ng/mL) obtained from Cayman Chemical (Ann Arbor, MI) was used to characterize the full fragmentation pattern of NAPQI and determine the likely fragments.

[3] = system: male CD1 mice; assay: Baker yeast-induced hyperthermia antipyresis assay; type: in vivo, mouse; settings: 15% yeast ip, drug 75 mg/kg per os
Description: Antipyresis experiments were carried out with n=60 CD-1 male mice weighing between 45-50 g. All mice were kept in a 12-h day/12-h night cycle with free access to food and water ad libitum. After habituating and acclimating the mice for a week, each mouse was briefly anesthetized for 1 min with 1% isoflurane and implanted subcutaneously a transmitter probe that records core body temperature—Implantable Programmable Temperature Transponder (IPTT-300) by Bio Medic Data Systems (BMDS), DE, USA. The mice were allowed to recover for at least one week from the surgery before any recordings were made and observed in their home cages prior to pyrogen challenge for inducing fever. Temperatures were recorded using the BMDS DAS-8027-IUS data reading system.
(15% yeast, […]) (MilliporeSigma, Billerica, MA, USA) was used to induce fever. All animals used in this assay were male CD1 mice, which were fasted overnight (15 h) before the start of the assay. Mice received either yeast in 0.9% saline (sterile) (vehicle) or just 0.9% saline as an ip injection. […] All mice that didn't show a significant change in body temperature or appeared sick post-pyrogen challenge were excluded (n=5) from subsequent drug administrations.
Drug injection/concentration: All drugs and vehicle (10% DMSO: 10% labrasol:80% PEG400) were administered by oral gavage, PO administration. […]

[4] = Genotoxicity battery, weight of the evidence; settings: Ames, chromosomal aberration, micronucleus and Comet assays
Description: To transition SRP-001 into the clinic for human use, a full set of in vivo and in vitro genotoxicity studies were performed to assess the potential genotoxicity of SRP-001.
To further evaluate the potential genotoxicity of SRP-001 and determine the validity of the in vitro findings, a second in vivo assay, a GLP-compliant Comet assay, was conducted in accordance with ICH S2(R1) Guidance on Genotoxicity Testing and Data Interpretation for Pharmaceuticals Intended for Human Use. […] SRP-001 was tested to evaluate its mutagenic potential by measuring its ability to induce reverse mutations at selected loci of several strains of Salmonella typhimurium (S. typhimurium) and at the tryptophan locus of Escherichia coli (E. coli) strain WP2 uvrA in the presence and absence of an exogenous metabolic activation system (Bioreliance, Rockville, MD USA). Dimethyl sulfoxide (10% DMSO) was used as the vehicle. The dose levels tested in the preliminary toxicity assay were 6.67, 10.0, 33.3, 66.7, 100, 333, 667, 1000, 3333, and 5000 μg per plate. No precipitate was observed. […] The dose levels tested in the mutagenicity assay were 100, 333, 667, 1000, 3333, and 5000 μg per plate. […] In the preliminary toxicity assay, the doses tested ranged from 0.0405 to 405 μg/mL (1 mM), which was the limit dose for this assay (Bioreliance, Rockville, MD USA).

Compound: CC(=O)Nc1ccc(O)cc1 [ApAP, acetaminophen]
- hepatic tight junctions by ZO-1 staining ([1]; CD1 mice, 600 mg/kg PO, 12 h, 600 mg/kg): significant reduction in ZO-1-stained tight junctions; also recorded: marked decrease in ZO-1
- signs of hepatotoxicity ([1]; 600 mg/kg): hepatotoxicity is evident
- animals dead in 48 hours [1]: 75%
- serum NAPQI formation [2]: a NAPQI peak is seen; also recorded: significantly enhanced
- antipyresis, core body temperature [3]: subsequent reduction in core body temperature

Compound: CCN(CC)C(=O)c1ccccc1S(=O)(=O)NCC(=O)Nc1ccc(O)cc1 [SRP-001, N,N-diethyl-2-[[2-(4-hydroxyanilino)-2-oxo-ethyl]sulfamoyl]benzamide]
- centrilobular necrosis / nitrotyrosine staining of liver sections ([1]; CD1 mice, 600 mg/kg PO, 12 h): lack nitrotyrosine staining
- liver transaminases ALT and AST ([1]; CD1 mice, 600 mg/kg, serum): not observed
- signs of hepatotoxicity ([1]; 600 mg/kg): no signs of hepatotoxicity
- animals dead in 48 hours [1]: none
- TUNEL-positive apoptotic nuclei in liver sections ([1]; mouse, in vivo, 600 mg/kg): almost no TUNEL signal
- serum NAPQI formation [2]: lack of formation of the toxic quinonimine metabolite NAPQI; also recorded: lack of production of NAPQI
- antipyresis, core body temperature [3]: subsequent reduction in core body temperature
- genotoxicity, overall conclusion [4]: not genotoxic; also recorded: negative for genotoxicity
